Test results: patent US8431541B2, “Alpha-amylase inhibitors: the montbretins and uses thereof” (The University of British Columbia, priority 2007, dated 2013)

Tests used:
[1] = molecular target: β-galactosidase (E. coli) (Escherichia coli, UniProt P00722); test: Glycosidase specificity: β-galactosidase; type: biochemical; conditions: at 0.1 μM Montbretin A; read-out: RA (%), Residual Enzyme Activity
[2] = test system: β-hexosaminidase (Jack Bean); test: Glycosidase specificity: β-hexosaminidase; type: biochemical; conditions: at 0.1 μM Montbretin A
[3] = molecular target: α-galactosidase (Green Coffee Beans) (Coffea arabica, UniProt Q42656); test: Glycosidase specificity: α-galactosidase; type: biochemical; conditions: at 0.1 μM Montbretin A; read-out: RA (%), Residual Enzyme Activity
Sequence of α-galactosidase (Green Coffee Beans) (Q42656 16-378): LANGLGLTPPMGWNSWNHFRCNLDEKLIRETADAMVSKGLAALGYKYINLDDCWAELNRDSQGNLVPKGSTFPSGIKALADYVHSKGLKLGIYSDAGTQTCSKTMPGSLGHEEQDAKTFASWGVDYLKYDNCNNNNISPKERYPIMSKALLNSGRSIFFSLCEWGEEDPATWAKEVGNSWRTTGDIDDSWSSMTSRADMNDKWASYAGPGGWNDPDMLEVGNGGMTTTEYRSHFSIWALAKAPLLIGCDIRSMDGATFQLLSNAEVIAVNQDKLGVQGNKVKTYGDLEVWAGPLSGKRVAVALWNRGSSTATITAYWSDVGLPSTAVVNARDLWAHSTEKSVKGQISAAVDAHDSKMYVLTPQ

[4] = test system: α-glucosidase (Brewers Yeast); test: Glycosidase specificity: α-glucosidase; type: biochemical; conditions: at 0.1 μM Montbretin A
[5] = test system: control and STZ-diabetic rats; test: Acute starch tolerance test; type: in vivo, rat
Procedure: Twenty-four animals were obtained at 200-250 g of body weight and randomly divided into control and diabetic groups. Diabetes was induced by a single intravenous tail vein injection of streptozotocin 60 mg/kg in 0.9% normal saline. Control rats received normal saline injections only. Animals were subsequently divided into acarbose untreated and treated. […] Starch was obtained from Fisher Scientific and a 17.5% suspension was made in distilled water. The dose of starch given was […].
The animals were fasted overnight. A basal blood sample was collected (50 μl volume) and then at 30, 60, 90 and 120 minutes post drug administration. Starch and starch+acarbose was administered by oral gavage. Blood was centrifuged at 10,000 g×25 minutes and plasma collected for determination of glucose levels using a Beckman Glucose Analyzer II™. There was no difference in body weight among the groups. There was a significant increase in plasma glucose 30 and 60 minutes following starch administration in the diabetic untreated group only.
The twenty-four animals from Example 6 were used following a wash out period of one week. Animals were divided into montbretin A untreated and treated. The four treatment groups were: control, n=6, control+montbretin A, n=6, diabetic, n=6 and diabetic+montbretin A, n=6. The procedures used in Example 6 were employed. Montbretin A was dissolved in distilled water at a concentration of 10 mg/ml and given at a volume of 1 ml/kg. The dose of montbretin A given was 10 mg/kg. There was no difference in body weight among the groups. There was a significant increase in plasma glucose levels in the diabetic untreated group at 30 and 60 minutes following starch administration.
A study was done to determine the effect of various amounts of montbretin A and montbretin extracts on plasma glucose levels in response to a starch challenge in STZ-diabetic rats. Diabetic animals used in the previous Examples were used following a wash out period of one week. The six experimental groups were: diabetic (D, n=3) diabetic+montbretin A (5 mg/kg), (DT5, n=3), diabetic+montbretin A (1 mg/kg), (DT1, n=3), diabetic+montbretin A (0.5 mg/kg), (DT0.5, n=3), diabetic+Crocosmia corm methanol extract (5 mg/kg), (DM, n=3) and diabetic+Crocosmia corm ethanol extract (5 mg/kg), (DE, n=2).
Montbretin A was dissolved in distilled water at a concentration of 5, 1 or 0.5 mg/ml and given at a volume of 1 ml/kg. The methanol extract contained montbretin A at a concentration of 3.2 mg/ml and ethanol extract at a concentration of 1.6 mg/ml. These extracts were dried and resuspended in distilled water. There was no difference in body weight among the groups. […] Diarrhea occurred in 2 out 3 animals given the methanol extract and in 1 out of 2 animals given the ethanol extract. […]

male Wistar rats = test: Taste aversion study, drinking water; type: in vivo, rat; conditions: approximately 10 mg/kg/day in drinking water
Procedure: A study was done to determine if there is aversion by animals to the taste of montbretin A dissolved in drinking water. Six (6) male Wistar rats weighing between 500-650 g were housed 2 rats per cage. Three hundred grams (300 g) of standard rat chow (Purnia) was placed in the food hopper of each cage daily. Food consumption per cage per day was determined every 24 hours for 3 days. A fluid volume of 900 ml of drinking water was placed on each cage daily. Fluid consumption per cage per day was determined every 24 hours for 3 days. Body weights of each animal were measured every 24 hours.
Based on the preliminary drinking water values obtained, montbretin A was dissolved in the drinking water so as to deliver a dose of 10 mg/kg/day. Body weight and food consumption measurements were done as described above. A fluid volume of 250 ml of montbretin A solution at a concentration of 0.09 mg/ml was placed on each cage daily. Fluid consumption was measured every 24 hours for 3 days.
The food and fluid consumption and body weights were analyzed. The dose of montbretin A was determined based on weight and consumption values. There was no effect of montbretin A dissolved in the drinking water on body weight, fluid intake or food intake and a dose of approximately 10 mg/kg was achieved.

Sequence of β-galactosidase (E. coli) (P00722 2-1024 limits assumed): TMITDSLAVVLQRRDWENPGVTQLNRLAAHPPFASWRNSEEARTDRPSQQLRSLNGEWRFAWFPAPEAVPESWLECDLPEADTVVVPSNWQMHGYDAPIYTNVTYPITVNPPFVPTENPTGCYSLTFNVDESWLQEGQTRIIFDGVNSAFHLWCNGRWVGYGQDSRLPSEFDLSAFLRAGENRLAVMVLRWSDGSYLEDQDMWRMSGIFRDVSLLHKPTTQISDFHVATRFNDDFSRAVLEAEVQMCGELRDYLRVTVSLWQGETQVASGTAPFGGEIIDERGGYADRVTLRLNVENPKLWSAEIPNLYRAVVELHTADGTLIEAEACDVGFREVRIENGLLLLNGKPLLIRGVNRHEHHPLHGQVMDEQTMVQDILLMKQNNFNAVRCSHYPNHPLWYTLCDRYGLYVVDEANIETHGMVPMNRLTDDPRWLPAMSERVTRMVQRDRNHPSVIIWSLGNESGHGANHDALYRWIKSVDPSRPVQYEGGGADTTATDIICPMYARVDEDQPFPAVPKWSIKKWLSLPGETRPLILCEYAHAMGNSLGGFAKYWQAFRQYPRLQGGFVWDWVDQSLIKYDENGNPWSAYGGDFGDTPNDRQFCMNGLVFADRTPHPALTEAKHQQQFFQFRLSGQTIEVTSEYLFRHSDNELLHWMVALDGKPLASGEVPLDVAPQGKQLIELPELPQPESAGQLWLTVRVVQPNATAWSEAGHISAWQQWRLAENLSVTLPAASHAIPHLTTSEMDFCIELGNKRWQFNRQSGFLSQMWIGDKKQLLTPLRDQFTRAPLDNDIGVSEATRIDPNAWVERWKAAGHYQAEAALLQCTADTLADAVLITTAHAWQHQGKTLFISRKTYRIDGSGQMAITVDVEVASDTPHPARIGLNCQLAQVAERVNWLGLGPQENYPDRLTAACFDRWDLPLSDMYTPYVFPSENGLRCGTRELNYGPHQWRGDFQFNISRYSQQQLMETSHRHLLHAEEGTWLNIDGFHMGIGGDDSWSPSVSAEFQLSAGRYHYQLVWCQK

Structure (SMILES): CC1O[C@@H](O[C@@H]2CO[C@@H](Oc3c(O)cc(-c4oc5cc(O)cc(O)c5c(=O)c4O[C@@H]4OC(C)[C@H](O)[C@H](O)C4O[C@@H]4OC(COC(=O)/C=C/c5ccc(O)c(O)c5)[C@@H](O)[C@@H](O)C4O[C@@H]4OC(CO)[C@@H](O)[C@@H](O)C4O)cc3O)C(O)[C@@H]2O)C(O)[C@@H](O)[C@H]1O (some centres unmarked) [Montbretin A, montbretin A]
- remaining activity at 0.1 µM [1]: 98%
- RA (%), Residual Enzyme Activity [2]: 99%
- remaining activity at 0.1 µM [3]: 100%
- RA (%), Residual Enzyme Activity [4]: 97%
- increase in plasma glucose following starch administration ([5]; 5 mg/kg, acute, STZ-diabetic rats): prevented the increase in plasma glucose
- increase in plasma glucose following a starch challenge ([5]; 10 mg/kg, oral gavage, acute, control and STZ-diabetic rats): effective in preventing the increase in plasma glucose
- effect on plasma glucose, area under the curve ([5]; lower doses (1 mg/kg, 0.5 mg/kg), STZ-diabetic rats): not particularly significant
- effect on body weight (male Wistar rats; 3 days): no effect
- effect on fluid intake (male Wistar rats; 3 days): no effect
- effect on food intake (male Wistar rats; 3 days): no effect
- side effects (male Wistar rats; duration of the trial): no overt indications of side effects
